Assay results published in ChEMBL document CHEMBL1833893, “Synthesis and anticonvulsant activity of new 1-[2-oxo-2-(4-phenylpiperazin-1-yl)ethyl]pyrrolidine-2,5-diones” (Bioorg Med Chem Lett, 2011).
Calls of active or inactive are those of the source. No cut-off for these calls is given here.

Tests used:
[1] = tested on: Mus musculus; assay: Neurotoxicity in albino CF1 mouse assessed as motor impairment at 300 mg/kg, ip after 4 hrs by rotarod test; type: toxicity, organism-based; parameters: dose 300 mg/kg, route intraperitoneal; settings: in vivo
[2] = tested on: Mus musculus; assay: Anticonvulsant activity in albino CF1 mouse assessed as protection against subcutaneous pentylenetetrazole-induced seizures at 300 mg/kg, ip after 4 hrs; type: functional, organism-based; parameters: dose 300 mg/kg
[3] = tested on: Mus musculus; assay: Anticonvulsant activity in ip dosed albino CF1 mouse assessed as protection against maximal electroshock-induced seizures after 0.5 hrs; type: functional; settings: read-out: MED
[4] = tested on: Mus musculus; assay: Neurotoxicity in ip dosed albino CF1 mouse assessed as minimum dose required to cause motor impairment after 0.5 hrs by rotarod test; type: toxicity, organism-based; settings: in vivo
[5] = tested on: Mus musculus; assay: Anticonvulsant activity in albino CF1 mouse assessed as protection against subcutaneous pentylenetetrazole-induced seizures at 300 mg/kg, ip after 0.5 hrs; type: functional, organism-based; parameters: dose 300 mg/kg
[6] = tested on: Mus musculus; assay: Anticonvulsant activity in ip dosed albino CF1 mouse assessed as protection against maximal electroshock-induced seizures after 4 hrs; type: functional; settings: read-out: MED
[7] = tested on: Mus musculus; assay: Anticonvulsant activity in albino CF1 mouse assessed as protection against maximal electroshock-induced seizures at 300 mg/kg, ip after 4 hrs; type: functional, organism-based; parameters: dose 300 mg/kg
[8] = tested on: Mus musculus; assay: Anticonvulsant activity in ip dosed albino CF1 mouse assessed as protection against subcutaneous pentylenetetrazole-induced seizures after 4 hrs; type: functional; settings: albino CF1, 4 h, read-out: MED
[9] = tested on: Mus musculus; assay: Anticonvulsant activity in albino CF1 mouse assessed as protection against maximal electroshock-induced seizures at 300 mg/kg, ip after 0.5 hrs; type: functional, organism-based; parameters: dose 300 mg/kg
[10] = tested on: Mus musculus; assay: Anticonvulsant activity in ip dosed albino CF1 mouse assessed as protection against subcutaneous pentylenetetrazole-induced seizures after 0.5 hrs; type: functional; settings: albino CF1, 0.5 h, read-out: MED
[11] = tested on: Mus musculus; assay: Neurotoxicity in albino CF1 mouse assessed as motor impairment at 300 mg/kg, ip after 0.5 hrs by rotarod test; type: toxicity, organism-based; parameters: dose 300 mg/kg, route intraperitoneal; settings: in vivo
[12] = tested on: Mus musculus; assay: Anticonvulsant activity in albino CF1 mouse assessed as protection against electrically-induced seizure at 100 mg/kg, ip after 2 hrs by 6Hz psychomotor seizure test; type: functional
[13] = tested on: Mus musculus; assay: Anticonvulsant activity in albino CF1 mouse assessed as protection against electrically-induced seizure at 100 mg/kg, ip after 0.25 hrs by 6Hz psychomotor seizure test; type: functional
[14] = tested on: Rattus norvegicus; assay: Anticonvulsant activity in Sprague-Dawley rat assessed as protection against maximal electroshock-induced seizures at 30 mg/kg, po after 2 hrs; type: functional
[15] = tested on: Rattus norvegicus; assay: Anticonvulsant activity in Sprague-Dawley rat assessed as protection against maximal electroshock-induced seizures at 30 mg/kg, po after 1 hr; type: functional
[16] = tested on: Rattus norvegicus; assay: Anticonvulsant activity in Sprague-Dawley rat assessed as protection against maximal electroshock-induced seizures at 30 mg/kg, po after 0.25 hrs; type: functional
[17] = tested on: Rattus norvegicus; assay: Anticonvulsant activity in Sprague-Dawley rat assessed as protection against maximal electroshock-induced seizures at 30 mg/kg, po after 0.5 hrs; type: functional
[18] = tested on: Mus musculus; assay: Anticonvulsant activity in albino CF1 mouse assessed as protection against electrically-induced seizure at 100 mg/kg, ip after 4 hrs by 6Hz psychomotor seizure test; type: functional
[19] = tested on: Rattus norvegicus; assay: Anticonvulsant activity in Sprague-Dawley rat assessed as protection against maximal electroshock-induced seizures at 30 mg/kg, po after 4 hrs; type: functional
[20] = tested on: Mus musculus; assay: Anticonvulsant activity in albino CF1 mouse assessed as protection against electrically-induced seizure at 100 mg/kg, ip after 1 hr by 6Hz psychomotor seizure test; type: functional
[21] = tested on: Mus musculus; assay: Anticonvulsant activity in albino CF1 mouse assessed as protection against electrically-induced seizure at 100 mg/kg, ip after 0.5 hrs by 6Hz psychomotor seizure test; type: functional
[22] = tested on: Mus musculus; assay: Neurotoxicity in ip dosed albino CF1 mouse assessed as minimum dose required to cause motor impairment after 4 hrs by rotarod test; type: toxicity, organism-based; settings: in vivo

Row | SMILES | Activity [1] | Activity [2] | minimal effective dose [3] | MTC [4] | Activity [5] | minimal effective dose [6] | Activity [7] | minimal effective dose [10] | Activity [11] | Activity ([13]; route intraperitoneal) | Activity [14] | Activity [15] | Activity [16] | Activity [17] | Activity [19] | Activity ([21]; route intraperitoneal) | Activity ([20]; route intraperitoneal) | further results
1 | CC1CC(=O)N(CC(=O)N2CCN(c3ccccc3F)CC2)C1=O (stereo not drawn) | Non-toxic | inactive | 300 mg/kg | 300 mg/kg | inactive | 300 mg/kg | – | – | – | – | – | – | – | – | – | – | – | –
2 | CCC1(C)CC(=O)NC1=O (stereo not drawn) [ETHOSUXIMIDE] | Non-toxic | – | – | – | – | – | inactive | 100 mg/kg | Non-toxic | – | – | – | – | – | – | – | – | minimal effective dose [8]: 300 mg/kg; Activity [9]: inactive
3 | CC1CC(=O)N(CC(=O)N2CCN(c3ccccc3)CC2)C1=O (stereo not drawn) | Non-toxic | – | 300 mg/kg | 300 mg/kg | – | – | inactive | 300 mg/kg | – | – | – | – | – | – | – | – | – | minimal effective dose [8]: 300 mg/kg
4 | O=C(CN1C(=O)CCC1=O)N1CCN(c2ccccc2F)CC1 | Non-toxic | inactive | 300 mg/kg | 300 mg/kg | – | – | – | 300 mg/kg | – | – | – | – | – | – | – | – | – | –
5 | O=C(CN1C(=O)CCC1=O)N1CCN(c2ccccc2)CC1 | Non-toxic | inactive | 300 mg/kg | – | inactive | – | inactive | – | Non-toxic | – | – | – | – | – | – | – | – | –
6 | O=C(CN1C(=O)CCC1=O)N1CCN(c2ccccc2Cl)CC1 | Non-toxic | inactive | 100 mg/kg | 300 mg/kg | – | – | inactive | 300 mg/kg | – | 75% | inactive | inactive | inactive | inactive | inactive | – | – | Activity [12]: inactive; Activity [18]: inactive; Activity [20]: inactive
7 | O=C(CN1C(=O)CCC1=O)N1CCN(c2cccc(C(F)(F)F)c2)CC1 | – | – | 100 mg/kg | 100 mg/kg | inactive | 100 mg/kg | – | – | – | 100% | 75% | 75% | inactive | – | 75% | 100% | 75% | Activity ([12]; route intraperitoneal): 100%; minimal effective dose [8]: 300 mg/kg; Activity ([18]; route intraperitoneal): 75%; MTC [22]: 300 mg/kg
8 | O=C(CN1C(=O)CCC1=O)N1CCN(c2ccc(Cl)cc2)CC1 | – | inactive | 100 mg/kg | – | – | 300 mg/kg | – | 300 mg/kg | Non-toxic | – | – | inactive | inactive | inactive | – | – | – | Activity [12]: inactive; Activity [13]: inactive; Activity [21]: inactive; Activity [18]: inactive; MTC [22]: 300 mg/kg; Activity [20]: inactive
9 | O=C1NC(=O)C(c2ccccc2)(c2ccccc2)N1 [PHENYTOIN] | – | inactive | 30 mg/kg | 100 mg/kg | inactive | 30 mg/kg | – | – | – | – | 75% | 75% | – | 100% | 75% | – | – | MTC [22]: 100 mg/kg
10 | CCC1(CC)CC(=O)N(CC(=O)N2CCN(c3ccccc3Cl)CC2)C1=O | Non-toxic | inactive | 300 mg/kg | 300 mg/kg | inactive | – | inactive | – | – | – | – | – | – | – | – | – | – | –
11 | CC1(C)CC(=O)N(CC(=O)N2CCN(c3ccccc3F)CC2)C1=O | Non-toxic | inactive | 300 mg/kg | – | inactive | – | inactive | – | Non-toxic | – | – | – | – | – | – | – | – | –
12 | CC1(C)CC(=O)N(CC(=O)N2CCN(c3ccc(F)cc3)CC2)C1=O | Non-toxic | inactive | 100 mg/kg | 300 mg/kg | – | 100 mg/kg | – | 300 mg/kg | – | 100% | inactive | inactive | inactive | inactive | inactive | 100% | 75% | –
13 | O=C(CN1C(=O)CCC1=O)N1CCN(c2ccc(F)cc2)CC1 | Non-toxic | inactive | 300 mg/kg | – | inactive | 300 mg/kg | – | – | Non-toxic | – | – | – | – | – | – | – | – | –
14 | CC1CC(=O)N(CC(=O)N2CCN(c3ccc(F)cc3)CC2)C1=O (stereo not drawn) | Non-toxic | inactive | 300 mg/kg | – | inactive | 100 mg/kg | – | – | Non-toxic | – | – | – | – | – | – | 75% | 75% | Activity [18]: inactive
15 | CC1CC(=O)N(CC(=O)N2CCN(c3cccc(C(F)(F)F)c3)CC2)C1=O (stereo not drawn) | – | inactive | 100 mg/kg | 300 mg/kg | – | 100 mg/kg | – | 300 mg/kg | – | 100% | – | – | inactive | inactive | – | 100% | 100% | Activity ([12]; route intraperitoneal): 75%; Activity [18]: inactive; MTC [22]: 300 mg/kg
16 | CCC1(CC)CC(=O)N(CC(=O)N2CCN(c3cccc(C(F)(F)F)c3)CC2)C1=O | Non-toxic | inactive | 300 mg/kg | – | inactive | 300 mg/kg | – | – | Non-toxic | – | – | – | – | – | – | – | – | –
17 | CCC1(CC)CC(=O)N(CC(=O)N2CCN(c3ccccc3)CC2)C1=O | Non-toxic | inactive | – | – | inactive | – | inactive | – | Non-toxic | – | – | – | – | – | – | – | – | Activity [9]: inactive
18 | CCC1(CC)CC(=O)N(CC(=O)N2CCN(c3ccc(Cl)cc3)CC2)C1=O | Non-toxic | inactive | – | – | inactive | 300 mg/kg | – | – | Non-toxic | – | – | – | – | – | – | – | – | Activity [9]: inactive
19 | CC1CC(=O)N(CC(=O)N2CCN(c3ccccc3Cl)CC2)C1=O (stereo not drawn) | Non-toxic | inactive | 300 mg/kg | 300 mg/kg | – | – | inactive | 300 mg/kg | – | 100% | inactive | inactive | 75% | inactive | inactive | 100% | – | Activity [12]: inactive; Activity [18]: inactive
20 | CC1(C)CC(=O)N(CC(=O)N2CCN(c3cccc(C(F)(F)F)c3)CC2)C1=O | Non-toxic | inactive | 100 mg/kg | – | inactive | 100 mg/kg | – | – | Non-toxic | – | inactive | inactive | – | inactive | inactive | 75% | 75% | –
21 | CC1(C)CC(=O)N(CC(=O)N2CCN(c3ccccc3Cl)CC2)C1=O | Non-toxic | inactive | 300 mg/kg | – | inactive | – | inactive | – | Non-toxic | – | – | – | – | – | – | – | – | –
22 | CC1(C)CC(=O)N(CC(=O)N2CCN(c3ccc(Cl)cc3)CC2)C1=O | Non-toxic | inactive | 100 mg/kg | 300 mg/kg | – | 100 mg/kg | – | 300 mg/kg | – | 100% | – | inactive | inactive | inactive | 100% | 100% | 100% | –
23 | CC1CC(=O)N(CC(=O)N2CCN(c3ccc(Cl)cc3)CC2)C1=O (stereo not drawn) | – | inactive | 300 mg/kg | – | inactive | 100 mg/kg | – | – | Non-toxic | 75% | 75% | 75% | – | 75% | 75% | – | 75% | MTC [22]: 300 mg/kg
